Test results from the supplement of paper PMC10307832.

Key:
Assay in all cases: relative viability (nuclei count vs DMSO), 5 days (fraction); higher = more cells survive
[1] = test system: PC-3 [JPC-3]
Summary of the method: (§1)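 Medians of duplicate plates are given as relative viability. That measure is the nuclei count in treated wells divided by the count in vehicle wells. Counts were taken on 4× images of lung cancer cell lines in 1536-well plates, 5 days after pin-tool dosing the day after seeding with one drug alone or a fixed anchor-drug dose plus five library-drug doses (not always all listed) in √10 steps.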

[2] = test system: LXF-289
Summary of the method: as §1

[3] = test system: HOP-62
Summary of the method: as §1

[4] = test system: EMC-BAC-2
Summary of the method: as §1

[5] = test system: SW 900
Summary of the method: as §1

[6] = test system: NCI-H3122
Summary of the method: as §1

[7] = test system: SK-MES-1
Summary of the method: as §1

[8] = test system: NCI-H2170
Summary of the method: as §1

[9] = test system: NCI-H596
Summary of the method: as §1

[10] = test system: A-427
Summary of the method: as §1

[11] = test system: NCI-H322M
Summary of the method: as §1

[12] = test system: NCI-H1792
Summary of the method: as §1

[13] = test system: NCI-H2009
Summary of the method: as §1

[14] = test system: NCI-H2228
Summary of the method: as §1

[15] = test system: LK-2
Summary of the method: as §1

[16] = test system: SW 1573
Summary of the method: as §1

[17] = test system: ABC-1
Summary of the method: as §1

[18] = test system: NCI-H1944
Summary of the method: as §1

[19] = test system: NCI-H522
Summary of the method: as §1

[20] = test system: HARA
Summary of the method: as §1

[21] = test system: NCI-H1993
Summary of the method: as §1

[22] = test system: NCI-H727
Summary of the method: as §1

Q: For `O=c1cc(-c2cccc3c2Sc2ccccc2S3)oc(N2CCOCC2)c1` + N=C(N)NC(=N)NCCc1ccccc1 [Phenformin] (partner 250 µM), which relative viability ([1]; first compound 0.08 µM) is on record?
A: 0.473

Q: What about the relative viability ([1]; first compound 0.253 µM) of the same molecule?
A: 0.458

Q: What about the relative viability ([1]; first compound 0.8 µM) of the same molecule?
A: 0.514

Q: And the relative viability ([1]; first compound 2.53 µM)?
A: 0.448

Q: What about the relative viability ([1]; first compound 8 µM) of the same molecule?
A: 0.495

Q: What about the relative viability ([2]; first compound 0.08 µM) of the same molecule?
A: 0.531

Q: What about the relative viability ([2]; first compound 0.253 µM) of the same molecule?
A: 0.526

Q: And the relative viability ([2]; first compound 0.8 µM)?
A: 0.556

Q: And the relative viability ([2]; first compound 2.53 µM)?
A: 0.431

Q: What about the relative viability ([2]; first compound 8 µM) of the same molecule?
A: 0.558

Q: And the relative viability ([3]; first compound 0.08 µM)?
A: 0.714

Q: What about the relative viability ([3]; first compound 0.253 µM) of the same molecule?
A: 0.899

Q: What about the relative viability ([3]; first compound 0.8 µM) of the same molecule?
A: 0.688

Q: And the relative viability ([3]; first compound 2.53 µM)?
A: 0.663

Q: And the relative viability ([3]; first compound 8 µM)?
A: 0.799

Q: And the relative viability ([4]; first compound 0.08 µM)?
A: 0.502

Q: What about the relative viability ([4]; first compound 0.253 µM) of the same molecule?
A: 0.54

Q: And the relative viability ([4]; first compound 0.8 µM)?
A: 0.563

Q: What about the relative viability ([4]; first compound 2.53 µM) of the same molecule?
A: 0.489

Q: And the relative viability ([4]; first compound 8 µM)?
A: 0.519

Q: And the relative viability ([5]; first compound 0.08 µM)?
A: 0.645

Q: What about the relative viability ([5]; first compound 0.253 µM) of the same molecule?
A: 0.627

Q: What about the relative viability ([5]; first compound 0.8 µM) of the same molecule?
A: 0.441

Q: And the relative viability ([5]; first compound 2.53 µM)?
A: 0.567

Q: And the relative viability ([5]; first compound 8 µM)?
A: 0.597

Q: What about the relative viability ([6]; first compound 0.08 µM) of the same molecule?
A: 0.38

Q: And the relative viability ([6]; first compound 0.253 µM)?
A: 0.418

Q: And the relative viability ([6]; first compound 0.8 µM)?
A: 0.376

Q: And the relative viability ([6]; first compound 2.53 µM)?
A: 0.36

Q: And the relative viability ([6]; first compound 8 µM)?
A: 0.398

Q: What about the relative viability ([7]; first compound 0.08 µM) of the same molecule?
A: 0.681

Q: What about the relative viability ([7]; first compound 0.253 µM) of the same molecule?
A: 0.762

Q: And the relative viability ([7]; first compound 0.8 µM)?
A: 0.649

Q: What about the relative viability ([7]; first compound 2.53 µM) of the same molecule?
A: 0.642

Q: And the relative viability ([7]; first compound 8 µM)?
A: 0.666

Q: And the relative viability ([8]; first compound 0.08 µM)?
A: 0.427

Q: And the relative viability ([8]; first compound 0.253 µM)?
A: 0.444

Q: And the relative viability ([8]; first compound 0.8 µM)?
A: 0.431

Q: What about the relative viability ([8]; first compound 2.53 µM) of the same molecule?
A: 0.319

Q: And the relative viability ([8]; first compound 8 µM)?
A: 0.444

Q: And the relative viability ([9]; first compound 0.08 µM)?
A: 0.808

Q: What about the relative viability ([9]; first compound 0.253 µM) of the same molecule?
A: 0.812

Q: And the relative viability ([9]; first compound 0.8 µM)?
A: 0.921

Q: What about the relative viability ([9]; first compound 2.53 µM) of the same molecule?
A: 0.756

Q: What about the relative viability ([9]; first compound 8 µM) of the same molecule?
A: 0.887

Q: And the relative viability ([10]; first compound 0.08 µM)?
A: 0.282

Q: What about the relative viability ([10]; first compound 0.253 µM) of the same molecule?
A: 0.313

Q: What about the relative viability ([10]; first compound 0.8 µM) of the same molecule?
A: 0.376

Q: What about the relative viability ([10]; first compound 8 µM) of the same molecule?
A: 0.35

Q: What about the relative viability ([11]; first compound 0.08 µM) of the same molecule?
A: 0.738

Q: And the relative viability ([11]; first compound 0.253 µM)?
A: 0.764

Q: And the relative viability ([11]; first compound 0.8 µM)?
A: 0.742

Q: And the relative viability ([11]; first compound 2.53 µM)?
A: 0.632

Q: What about the relative viability ([11]; first compound 8 µM) of the same molecule?
A: 0.688

Q: And the relative viability ([12]; first compound 0.08 µM)?
A: 0.185

Q: What about the relative viability ([12]; first compound 0.253 µM) of the same molecule?
A: 0.349

Q: And the relative viability ([12]; first compound 0.8 µM)?
A: 0.258

Q: And the relative viability ([12]; first compound 2.53 µM)?
A: 0.168

Q: And the relative viability ([12]; first compound 8 µM)?
A: 0.345

Q: And the relative viability ([13]; first compound 0.08 µM)?
A: 0.481

Q: And the relative viability ([13]; first compound 0.253 µM)?
A: 0.545

Q: And the relative viability ([13]; first compound 0.8 µM)?
A: 0.522

Q: What about the relative viability ([13]; first compound 2.53 µM) of the same molecule?
A: 0.445

Q: And the relative viability ([13]; first compound 8 µM)?
A: 0.446

Q: What about the relative viability ([14]; first compound 0.08 µM) of the same molecule?
A: 0.346

Q: And the relative viability ([14]; first compound 0.253 µM)?
A: 0.25

Q: What about the relative viability ([14]; first compound 0.8 µM) of the same molecule?
A: 0.426

Q: What about the relative viability ([14]; first compound 2.53 µM) of the same molecule?
A: 0.267

Q: What about the relative viability ([14]; first compound 8 µM) of the same molecule?
A: 0.277

Q: What about the relative viability ([15]; first compound 0.08 µM) of the same molecule?
A: 0.582

Q: What about the relative viability ([15]; first compound 0.253 µM) of the same molecule?
A: 0.551

Q: What about the relative viability ([15]; first compound 0.8 µM) of the same molecule?
A: 0.524

Q: What about the relative viability ([15]; first compound 2.53 µM) of the same molecule?
A: 0.29

Q: What about the relative viability ([15]; first compound 8 µM) of the same molecule?
A: 0.381

Q: What about the relative viability ([16]; first compound 0.08 µM) of the same molecule?
A: 0.38

Q: What about the relative viability ([16]; first compound 0.253 µM) of the same molecule?
A: 0.369

Q: And the relative viability ([16]; first compound 0.8 µM)?
A: 0.339

Q: What about the relative viability ([16]; first compound 2.53 µM) of the same molecule?
A: 0.347

Q: And the relative viability ([16]; first compound 8 µM)?
A: 0.364

Q: What about the relative viability ([17]; first compound 0.08 µM) of the same molecule?
A: 0.228

Q: What about the relative viability ([17]; first compound 0.253 µM) of the same molecule?
A: 0.23

Q: What about the relative viability ([17]; first compound 0.8 µM) of the same molecule?
A: 0.23

Q: And the relative viability ([17]; first compound 2.53 µM)?
A: 0.234

Q: And the relative viability ([17]; first compound 8 µM)?
A: 0.277

Q: What about the relative viability ([18]; first compound 0.08 µM) of the same molecule?
A: 0.192

Q: And the relative viability ([18]; first compound 0.253 µM)?
A: 0.21

Q: What about the relative viability ([18]; first compound 0.8 µM) of the same molecule?
A: 0.186

Q: And the relative viability ([18]; first compound 2.53 µM)?
A: 0.168

Q: What about the relative viability ([18]; first compound 8 µM) of the same molecule?
A: 0.22

Q: And the relative viability ([19]; first compound 0.08 µM)?
A: 0.56

Q: What about the relative viability ([19]; first compound 0.253 µM) of the same molecule?
A: 0.689

Q: What about the relative viability ([19]; first compound 0.8 µM) of the same molecule?
A: 0.622

Q: What about the relative viability ([19]; first compound 2.53 µM) of the same molecule?
A: 0.556

Q: And the relative viability ([19]; first compound 8 µM)?
A: 0.67

Q: And the relative viability ([20]; first compound 0.08 µM)?
A: 0.452

Q: What about the relative viability ([20]; first compound 0.253 µM) of the same molecule?
A: 0.592

Q: And the relative viability ([20]; first compound 0.8 µM)?
A: 0.435

Q: And the relative viability ([20]; first compound 2.53 µM)?
A: 0.348

Q: And the relative viability ([20]; first compound 8 µM)?
A: 0.702

Q: What about the relative viability ([21]; first compound 0.08 µM) of the same molecule?
A: 0.494

Q: What about the relative viability ([21]; first compound 0.253 µM) of the same molecule?
A: 0.52

Q: And the relative viability ([21]; first compound 0.8 µM)?
A: 0.589

Q: And the relative viability ([21]; first compound 2.53 µM)?
A: 0.565

Q: What about the relative viability ([21]; first compound 8 µM) of the same molecule?
A: 0.56

Q: And the relative viability ([22]; first compound 0.08 µM)?
A: 0.503

Q: And the relative viability ([22]; first compound 0.253 µM)?
A: 0.591

Q: What about the relative viability ([22]; first compound 0.8 µM) of the same molecule?
A: 0.411

Q: What about the relative viability ([22]; first compound 2.53 µM) of the same molecule?
A: 0.571

Q: What about the relative viability ([22]; first compound 8 µM) of the same molecule?
A: 0.525
